Source: US20250197905A1, “LEGIONAMINIC ACID GLYCOSYLTRANSFERASES FOR CHEMOENZYMATIC SYNTHESIS OF GLYCANS AND GLYCOCONJUGATES” (The Regents of the University of California, priority 2022, published 2025)
Where “and” joins values, the source holds several entries; their conditions need not be identical. Equal entries are not always repeated.

Assays:
His6-AbGtr18 [1] = experiment: Effects of metal ions, EDTA, and DTT on the activity of His6-AbGtr18; assay type: biochemical, A. baumannii K8; conditions: donor CMP-Leg5,7Ac2; for Effect on the activity of AbGtr18: 10 mM additive, 40° C., 30 minutes, pH 6.0
Description: Effects of metal ions, EDTA, and a reducing reagent DTT on the activity of His6-AbGtr18. Enzymatic assays were carried out in duplicate at 40° C. for 30 minutes in a total volume of 10 μL in citric acid-sodium citrate buffer ([…], pH 6.0) containing 1 mM CMP-Leg5,7Ac2, 1 mM GalNAcα2AA, His6-AbGtr18 (0.64 μM), and 10 mM of CaCl2), CuSO4, MgCl2, MnCl2, NiSO4, ZnCl2, ethylenediaminetetraacetic acid (EDTA), or dithiothreitol (DTT). Reactions without metal ions, EDTA, or DTT were used as controls. The reactions were quenched by adding 40 μL methanol. Samples were centrifuged, and then analyzed by UHPLC as described above for pH profile studies.

MBP-AbGtr18-His6 = assay type: biochemical, A. baumannii K8
[2] = system: LpCLS or NmCSS, with or without PmAldolase; assay type: biochemical
His6-AbGtr18 [3] = assay type: biochemical, A. baumannii K8

| Compound | Sialoside yield (%) 20 h (MBP-AbGtr18-His6) | CMP-Sia Yield (%) [2] [%] | Activity of His6-AbGtr18 towards acceptor (in words) (His6-AbGtr18 [3]) | Yield (%) 20 h (His6-AbGtr18 [3]) | also measured |
| --- | --- | --- | --- | --- | --- |
| O[C@H](CS)[C@H](O)CS (racemic) [DTT, dithiothreitol] |  |  |  |  | Effect on the activity of AbGtr18 (His6-AbGtr18 [1]): no significant effect |
| CC(=O)N[C@@H]([C@H](O)[C@H](NC(C)=O)[C@@H](O)CC(=O)C(=O)O)[C@@H](C)O [CMP-Leg5,7Ac2, 5,7-diacetamido-3,5,7,9-tetradeoxy-D-glycero-D-galacto-non-2-ulosonic acid] | 72.6 ± 0.1% and 99.0 ± 0.6% | >99 |  |  | Sialoside yield (%) 0.5 h (MBP-AbGtr18-His6): 53.5 ± 0.5% and 56.6 ± 1.6%; Suitability as donor substrate for MBP-AbGtr18-His6 (in words) (MBP-AbGtr18-His6): used efficiently |
| [N-]=[N+]=NCC(O)C(N=[N+]=[N-])C1OC(OP(=O)(O)OCC2OC(n3ccc(N)nc3=O)C(O)C2O)(C(=O)O)CC(O)C1N=[N+]=[N-] (centres unmarked) [CMP-Neu5,7,9triN3] |  |  |  |  | Suitability as donor substrate for MBP-AbGtr18-His6 (in words) (MBP-AbGtr18-His6): limited activity |
| [N-]=[N+]=N[C@@H]([C@@H]1OC(OP(=O)(O)OC[C@H]2O[C@@H](n3ccc(N)nc3=O)[C@H](O)[C@@H]2O)(C(=O)O)C[C@H](O)[C@H]1N=[N+]=[N-])[C@H](O)CO (some centres unmarked) [CMP-Neu5,7diN3] |  |  |  |  | Suitability as donor substrate for MBP-AbGtr18-His6 (in words) (MBP-AbGtr18-His6): limited activity |
| CC(=O)NC1C(O)CC(OP(=O)(O)OCC2OC(n3ccc(N)nc3=O)C(O)C2O)(C(=O)O)OC1C(N=[N+]=[N-])C(O)CO (centres unmarked) [CMP-Neu5Ac7N3] |  |  |  |  | Suitability as donor substrate for MBP-AbGtr18-His6 (in words) (MBP-AbGtr18-His6): suitable but less efficient donor substrates |
| CC(=O)N[C@H]1[C@H]([C@H](O)[C@H](O)CN=[N+]=[N-])OC(OP(=O)(O)OC[C@H]2O[C@@H](n3ccc(N)nc3=O)[C@H](O)[C@@H]2O)(C(=O)O)C[C@@H]1O (some centres unmarked) [CMP-Neu5Ac9N3] |  |  |  |  | Suitability as donor substrate for MBP-AbGtr18-His6 (in words) (MBP-AbGtr18-His6): efficient |
| [N-]=[N+]=NCC(=O)N[C@H]1[C@H]([C@H](O)[C@H](O)CO)OC(OP(=O)(O)OC[C@H]2O[C@@H](n3ccc(N)nc3=O)[C@H](O)[C@@H]2O)(C(=O)O)C[C@@H]1O (some centres unmarked) [CMP-Neu5Az] |  |  |  |  | Suitability as donor substrate for MBP-AbGtr18-His6 (in words) (MBP-AbGtr18-His6): efficient |
| Nc1ccn([C@@H]2O[C@H](COP(=O)(O)O[C@@]3(C(=O)O)C[C@H](O)[C@@H](NC(=O)CO)[C@H]([C@H](O)[C@H](O)CO)O3)[C@@H](O)[C@H]2O)c(=O)n1 [CMP-Neu5Gc] |  |  |  |  | Suitability as donor substrate for MBP-AbGtr18-His6 (in words) (MBP-AbGtr18-His6): suitable but less efficient donor substrates |
| [N-]=[N+]=NC1C(O)CC(OP(=O)(O)OCC2OC(n3ccc(N)nc3=O)C(O)C2O)(C(=O)O)OC1C(O)C(O)CO (centres unmarked) [CMP-Neu5N3] |  |  |  |  | Suitability as donor substrate for MBP-AbGtr18-His6 (in words) (MBP-AbGtr18-His6): poor donor substrates |
| [Ca+2].[Cl-].[Cl-] [Ca^2+, CaCl2] |  |  |  |  | Effect on the activity of AbGtr18 (His6-AbGtr18 [1]): no significant effect |
| O=S(=O)([O-])[O-].[Cu+2] [Cu^2+, CuSO4] |  |  |  |  | Effect on the activity of AbGtr18 (His6-AbGtr18 [1]): decreased the reaction yields |
| O=C(O)CN(CCN(CC(=O)O)CC(=O)O)CC(=O)O [EDTA, ethylenediaminetetraacetic acid] |  |  |  |  | Effect on the activity of AbGtr18 (His6-AbGtr18 [1]): no effect |
| CC(=O)N[C@H]1[C@@H](OCCCNC(=O)OCc2ccccc2)O[C@H](CO)[C@H](O)[C@@H]1O [GalNAcαProNHCbz] |  |  | lower efficiency | 82.5 ± 0.6% | Yield (%) 15 min (His6-AbGtr18 [3]): 14.6 ± 1.1% |
| CC(=O)N[C@H]1[C@H](OCCCNC(=O)OCc2ccccc2)O[C@H](CO)[C@H](O)[C@@H]1O [GalNAcβProNHCbz] |  |  | much lower efficiencies | 33.5 ± 0.8% | Yield (%) 15 min (His6-AbGtr18 [3]): 1.7 ± 0.2% |
| O=[N+]([O-])c1ccc(O[C@H]2O[C@H](CO)[C@H](O)[C@H](O)[C@H]2O)cc1 [GalαpNP, 4-Nitrophenyl-α-D-galactopyranoside] |  |  | much lower efficiencies | 16.7 ± 0.2% |  |
| CC(=O)N[C@H]1[C@@H](OCCCNC(=O)OCc2ccccc2)O[C@H](CO)[C@H](O)[C@@H]1O[C@@H]1O[C@H](CO)[C@H](O)[C@H](O)[C@H]1O [Galβ1-3GalNAcαProNHCbz] |  |  | trace activity | Trace^[e] |  |
| CC(=O)N[C@H]1[C@H](OCCCNC(=O)OCc2ccccc2)O[C@H](CO)[C@H](O)[C@@H]1O[C@@H]1O[C@H](CO)[C@H](O)[C@H](O)[C@H]1O [Galβ1-3GalNAcβProNHCbz] |  |  | trace activity | Trace |  |
| CC(=O)N[C@H]1[C@H](OCCCNC(=O)OCc2ccccc2)O[C@H](CO)[C@@H](O)[C@@H]1O[C@@H]1O[C@H](CO)[C@H](O)[C@H](O)[C@H]1O [Galβ1-3GlcNAcβProNHCbz] |  |  | much lower efficiencies | 23.9 ± 0.3% | Yield (%) 15 min (His6-AbGtr18 [3]): 0.9 ± 0.1% |
| O=[N+]([O-])c1ccc(O[C@@H]2O[C@H](CO)[C@H](O)[C@H](O)[C@H]2O)cc1 [GalβpNP, 4-nitrophenyl β-D-galactopyranoside] |  |  | trace activity | 1.6 ± 0.1% |  |
| CC(=O)N[C@H]1[C@@H](OCCCNC(=O)OCc2ccccc2)O[C@H](CO)[C@@H](O)[C@@H]1O [GlcNAcαProNHCbz] |  |  | much lower efficiencies | 20.4 ± 0.1% | Yield (%) 15 min (His6-AbGtr18 [3]): 0.5 ± 0.1% |

| Compound | Sialoside yield (%) 20 h (MBP-AbGtr18-His6) | CMP-Sia Yield (%) [2] [%] | Activity of His6-AbGtr18 towards acceptor (in words) (His6-AbGtr18 [3]) | Yield (%) 20 h (His6-AbGtr18 [3]) | also measured |
| --- | --- | --- | --- | --- | --- |
| CC(=O)N[C@H]1[C@H](OCCCNC(=O)OCc2ccccc2)O[C@H](CO)[C@@H](O)[C@@H]1O [GlcNAcβProNHCbz] |  |  | trace activity | 1.0 ± 0.1% |  |
| O=C(O)C1(O)C[C@H](O)[C@@H](O)[C@H]([C@H](O)[C@H](O)CO)O1 (some centres unmarked) [Kdn] | 9.6 ± 0.1% | >99 |  |  | Suitability as donor substrate for MBP-AbGtr18-His6 (in words) (MBP-AbGtr18-His6): poor donor substrates |
| CC(=O)N[C@H]1[C@H](OCCCNC(=O)OCc2ccccc2)O[C@H](CO)[C@@H](O[C@@H]2O[C@H](CO)[C@H](O)[C@H](O)[C@H]2O)[C@@H]1O [LacNAcβProNHCbz] |  |  | limited activity | 7.7 ± 0.1% |  |
| O=C(NCCCO[C@@H]1O[C@H](CO)[C@@H](O[C@@H]2O[C@H](CO)[C@H](O)[C@H](O)[C@H]2O)[C@H](O)[C@H]1O)OCc1ccccc1 [LacβProNHCbz] |  |  | limited activity | 13.8 ± 0.2% |  |
| C[C@@H](O)[C@@H](N=[N+]=[N-])[C@@H]1OC(O)(C(=O)O)C[C@H](O)[C@H]1N=[N+]=[N-] (some centres unmarked) [Leg5,7diN3] | 68.4 ± 1.5% | >99 |  |  | Sialoside yield (%) 0.5 h (MBP-AbGtr18-His6): 44.3 ± 1.6%; Suitability as donor substrate for MBP-AbGtr18-His6 (in words) (MBP-AbGtr18-His6): suitable but less efficient donor substrates |
| CC(=O)NC[C@H]1OC(O)[C@@H](NC(C)=O)[C@@H](O)[C@@H]1NC(C)=O (some centres unmarked) [Man2,4,6triNAc] | 2.8 ± 0.1% | 24.1 ± 1.1 |  |  |  |
| CC(=O)N[C@H]1[C@H](O)[C@H](NC(C)=O)C(O)O[C@@H]1CO (some centres unmarked) [Man2,4diNAc] | 30.3 ± 0.3% | 51.5 ± 0.9 |  |  | Sialoside yield (%) 0.5 h (MBP-AbGtr18-His6): 5.5 ± 0.1% |
| [N-]=[N+]=NC1C(O)OC(CO)[C@@H](O)[C@@H]1O (some centres unmarked) [Man2N3] | Trace | 57.6 ± 0.1 |  |  |  |
| CC(=O)N[C@@H]1C(O)O[C@H](CO)[C@@H](N=[N+]=[N-])[C@@H]1O (some centres unmarked) [ManNAc4N3] | 72.5 ± 0.1% | 84.4 ± 1.6 |  |  | Sialoside yield (%) 0.5 h (MBP-AbGtr18-His6): 50.6 ± 0.5% |
| CC(=O)N[C@@H]1C(O)O[C@H](CN=[N+]=[N-])[C@@H](O)[C@@H]1O (some centres unmarked) [ManNAc6N3] | 96.0 ± 2.1% | >99 |  |  | Sialoside yield (%) 0.5 h (MBP-AbGtr18-His6): 55.5 ± 0.6% |
| CC(=O)N[C@H]1[C@@H](O)[C@H](O)[C@@H](CO)O[C@@H]1O [ManNAc] | 71.1 ± 0.4% | >99 |  |  | Sialoside yield (%) 0.5 h (MBP-AbGtr18-His6): 37.6 ± 0.4% |
| [N-]=[N+]=NCC(=O)NC1C(O)OC(CO)C(O)C1O (centres unmarked) [ManNAz] | 98.4 ± 1.8% | >99 |  |  | Sialoside yield (%) 0.5 h (MBP-AbGtr18-His6): 57.3 ± 0.4% |
| O=C(CO)N[C@@H]1C(O)O[C@H](CO)[C@@H](O)[C@@H]1O (some centres unmarked) [ManNGc] | 71.6 ± 2.5% | >99 |  |  | Sialoside yield (%) 0.5 h (MBP-AbGtr18-His6): 13 ± 0.4% |
| O=C[C@@H](O)[C@@H](O)[C@H](O)[C@H](O)CO [Mannose] | 5.0 ± 0.3% | 77.7 ± 1.6 |  |  |  |
| [Cl-].[Cl-].[Mg+2] [Mg^2+, MgCl2] |  |  |  |  | Effect on the activity of AbGtr18 (His6-AbGtr18 [1]): no significant effect; Effect of increasing Mg^2+ concentration on the activity of His6-AbGtr18 (His6-AbGtr18 [1]; up to 50 mM): decrease the activity |
| [Cl][Mn][Cl] [Mn^2+, MnCl2] |  |  |  |  | Effect on the activity of AbGtr18 (His6-AbGtr18 [1]): almost abolished its activity completely |
| CC(=O)N[C@H]1[C@H]([C@@H](O)[C@@H](O)CO)O[C@@](O)(C(=O)O)C[C@@H]1O [Neu5Ac] | 93.3 ± 0.6% | >99 |  |  | Sialoside yield (%) 0.5 h (MBP-AbGtr18-His6): 47.4 ± 1.7%; Suitability as donor substrate for MBP-AbGtr18-His6 (in words) (MBP-AbGtr18-His6): efficient |
| [Cl-].[Cl-].[Zn+2] [Zn^2+, ZnCl2] |  |  |  |  | Effect on the activity of AbGtr18 (His6-AbGtr18 [1]): almost abolished its activity completely |
| GalNAcα2AA |  |  | most reactive | 78.1 ± 0.6% | Yield (%) 15 min (His6-AbGtr18 [3]): 35.7 ± 2.2% |
